Experimental data: ChEMBL document CHEMBL5257072, “Synthesis of Lathyrol PROTACs and Evaluation of Their Anti-Inflammatory Activities” (J Nat Prod, 2023)
Active and inactive are the calls of the source. The calls are words filed in the database; no cut-off is given here.

Key:
RAW264.7 [1] = experiment: Anti-inflammatory activity in mouse RAW264.7 cells assessed as inhibition of LPS-induced NO production incubated for 3 hrs followed by LPS addition and measured after 24 hrs; format: functional, cell-based
RAW264.7 [2] = experiment: Cytotoxicity against mouse RAW264.7 cells assessed as reduction in cell viability incubated for 24 hrs by CCK-8 method; format: functional, cell-based; details: RAW264.7, 24 h
RAW264.7 [3] = experiment: Cytotoxicity against mouse RAW264.7 cells assessed as reduction in cell viability at 25 uM incubated for 24 hrs by CCK-8 method; format: functional, cell-based
[4] = biological target: Transcription factor MafF (Mus musculus) (UniProt O54791); experiment: Induction of degradation of MAFF in mouse RAW264.7 cells at 20 uM measured after 24 hrs; format: cell-based
[5] = biological target: Transcription factor MafF (Mus musculus) (UniProt O54791); experiment: Induction of degradation of MAFF in mouse RAW264.7 cells at 2.5 to 20 uM measured after 24 hrs; format: cell-based; details: dose 2.5-20 µM
[6] = biological target: Transcription factor MafF (Mus musculus) (UniProt O54791); experiment: Induction of degradation of MAFF in mouse RAW264.7 cells at 40 uM measured after 24 hrs; format: cell-based
[7] = biological target: Transcription factor MafF (Mus musculus) (UniProt O54791); experiment: Induction of degradation of MAFF in mouse RAW264.7 cells assessed as reduction in MAFF expression at 20 uM measured after 24 hrs; format: cell-based
[8] = biological target: Transcription factor MafF (Mus musculus) (UniProt O54791); experiment: Induction of degradation of MAFF in mouse RAW264.7 cells at 20 uM incubated for 24 hrs in presence of MG132 by Western blot analysis; format: cell-based
RAW264.7 [9] = experiment: Antiinflammatory activity in LPS induced mouse RAW264.7 cells assessed as inhibition of ROS production by DCFH-DA staining based fluorescence assay; format: functional, cell-based; details: dose 5-20 µM
RAW264.7 [10] = experiment: Antiinflammatory activity in LPS induced mouse RAW264.7 cells assessed as upregulation of Nrf2 expression at 5 to 20 uM; format: functional, cell-based; details: dose 5-20 µM
RAW264.7 [11] = experiment: Antiinflammatory activity in LPS induced mouse RAW264.7 cells assessed as upregulation of heme oxygenase I expression at 5 to 20 uM; format: functional, cell-based; details: dose 5-20 µM
RAW264.7 [12] = experiment: Antiinflammatory activity in LPS induced mouse RAW264.7 cells assessed as reduction in inducible nitric oxide synthase by immunofluorescence analysis; format: functional, cell-based; details: dose 5-20 µM
RAW264.7 [13] = experiment: Antiinflammatory activity in LPS induced mouse RAW264.7 cells assessed as inhibition of […] phosphorylation at 5 to 20 uM by immunofluorescence analysis; format: functional, cell-based; details: dose 5-20 µM
RAW264.7 [14] = experiment: Antiinflammatory activity in LPS induced mouse RAW264.7 cells assessed as inhibition of NF-kappaB phosphorylation at 5 to 20 uM by immunofluorescence analysis; format: functional, cell-based; details: dose 5-20 µM
RAW264.7 [15] = experiment: Antiinflammatory activity in LPS induced mouse RAW264.7 cells assessed as inhibition of nuclear translocation of NF-kappaB at 20 uM by immunofluorescence analysis; format: functional, cell-based
RAW264.7 [16] = experiment: Induction of autophagy in LPS induced mouse RAW264.7 cells assessed as increase in p62 expression at 5 to 40 uM by Western blot analysis; format: functional, cell-based; details: dose 5-40 µM
RAW264.7 [17] = experiment: Induction of autophagy in LPS induced mouse RAW264.7 cells assessed as increase in LC3B-II expression at 5 to 40 uM by Western blot analysis; format: functional, cell-based; details: dose 5-40 µM

Sequence of Transcription factor MafF (Mus musculus) (O54791 whole entry): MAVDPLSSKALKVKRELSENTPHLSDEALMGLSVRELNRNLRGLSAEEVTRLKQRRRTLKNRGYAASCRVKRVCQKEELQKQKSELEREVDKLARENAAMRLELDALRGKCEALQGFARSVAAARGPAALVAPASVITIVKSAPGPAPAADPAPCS

Structure (SMILES): C=C1CC[C@H]2[C@@H](/C=C(\C)C(=O)[C@@]3(O)C[C@H](C)[C@H](O)[C@@H]3[C@H]1OCc1cn(CCOCCOCCOCCNC(=O)[C@H](CC(C)C)NC(=O)[C@@H](O)[C@@H](Cc3ccccc3)NC(=O)OC(C)(C)C)nn1)C2(C)C
- IC50 (RAW264.7 [1]): > 20 µM
- IC50 (RAW264.7 [2]): > 50 µM

Structure (SMILES): C=C1CC[C@H]2[C@@H](/C=C(\C)C(=O)[C@@]3(O)C[C@H](C)[C@H](O)[C@@H]3[C@H]1OCc1cn(CCCCCC(=O)N[C@H](C(=O)N3C[C@H](O)C[C@H]3C(=O)NCc3ccc(-c4scnc4C)cc3)C(C)(C)C)nn1)C2(C)C
- IC50 (RAW264.7 [1]): > 20 µM
- Activity (RAW264.7 [3]): Active

Structure (SMILES): C=C1CC[C@H]2[C@@H](/C=C(\C)C(=O)[C@@]3(O)C[C@H](C)[C@H](O)[C@@H]3[C@H]1OCc1cn(CCCC(=O)N[C@H](Cc3ccccc3)[C@H](O)C(=O)N[C@@H](CC(C)C)C(=O)OC)nn1)C2(C)C
- IC50 (RAW264.7 [1]): > 20 µM
- IC50 (RAW264.7 [2]): > 50 µM

Structure (SMILES): C=C1CC[C@H]2[C@@H](/C=C(\C)C(=O)[C@@]3(O)C[C@H](C)[C@H](O)[C@@H]3[C@H]1OCc1cn(CC(=O)N[C@H](C(=O)N3C[C@H](O)C[C@H]3C(=O)NCc3ccc(-c4scnc4C)cc3)C(C)(C)C)nn1)C2(C)C
- IC50 (RAW264.7 [1]): > 20 µM
- IC50 (RAW264.7 [2]): > 50 µM

Structure (SMILES): C=C1CC[C@H]2[C@@H](/C=C(\C)C(=O)[C@@]3(O)C[C@H](C)[C@H](O)[C@@H]3[C@H]1OCc1cn(CCCCCC(=O)N[C@H](C(=O)N3C[C@H](O)C[C@H]3C(=O)N[C@H](C)c3ccc(-c4scnc4C)cc3)C(C)(C)C)nn1)C2(C)C
- IC50 (RAW264.7 [1]): > 20 µM
- IC50 (RAW264.7 [2]): > 50 µM

Structure (SMILES): C=C1CC[C@H]2[C@@H](/C=C(\C)C(=O)[C@@]3(O)C[C@H](C)[C@H](O)[C@@H]3[C@H]1OCc1cn(CCCC(=O)N[C@H](C(=O)N3C[C@H](O)C[C@H]3C(=O)NCc3ccc(-c4scnc4C)cc3)C(C)(C)C)nn1)C2(C)C
- IC50 (RAW264.7 [1]): > 20 µM
- IC50 (RAW264.7 [2]): > 50 µM

Structure (SMILES): C=C1CC[C@H]2[C@@H](/C=C(\C)C(=O)[C@@]3(O)C[C@H](C)[C@H](O)[C@@H]3[C@H]1OCc1cn(CCOCCOCCNC(=O)[C@H](CC(C)C)NC(=O)[C@@H](O)[C@@H](Cc3ccccc3)NC(=O)OC(C)(C)C)nn1)C2(C)C
- IC50 (RAW264.7 [1]): 5.3 µM
- IC50 (RAW264.7 [2]): > 50 µM
- Activity [4]: Active
- Activity [5]: Active
- Activity [6]: inactive
- Activity [7]: Active
- Activity [8]: inactive
- Activity (RAW264.7 [9]): Dose-Dependent Effect
- Activity (RAW264.7 [10]): Active
- Activity (RAW264.7 [11]): Active
- Activity (RAW264.7 [12]): Dose-Dependent Effect
- Activity (RAW264.7 [13]): Active
- Activity (RAW264.7 [14]): Active
- Activity (RAW264.7 [15]): Active
- Activity (RAW264.7 [16]): Active
- Activity (RAW264.7 [17]): Active

Structure (SMILES): C=C1CC[C@H]2[C@@H](/C=C(\C)C(=O)[C@@]3(O)C[C@H](C)[C@H](O)[C@@H]3[C@H]1OCc1cn(CCCCCC(=O)N[C@H](Cc3ccccc3)[C@H](O)C(=O)N[C@@H](CC(C)C)C(=O)OC)nn1)C2(C)C
- IC50 (RAW264.7 [1]): > 20 µM
- IC50 (RAW264.7 [2]): > 50 µM

Structure (SMILES): C=C1CC[C@H]2[C@@H](/C=C(\C)C(=O)[C@@]3(O)C[C@H](C)[C@H](O)[C@@H]3[C@H]1OCc1cn(CCCC(=O)N[C@H](C(=O)N3C[C@H](O)C[C@H]3C(=O)N[C@H](C)c3ccc(-c4scnc4C)cc3)C(C)(C)C)nn1)C2(C)C
- IC50 (RAW264.7 [1]): > 20 µM
- IC50 (RAW264.7 [2]): > 50 µM

Structure (SMILES): C=C1CC[C@H]2[C@@H](/C=C(\C)C(=O)[C@@]3(O)C[C@H](C)[C@H](O)[C@@H]3[C@H]1OCc1cn(CCOCCOCCOCCOCCNC(=O)CN3CCN(C(=O)N4C(c5ccc(OC)cc5OC(C)C)=N[C@H](c5ccc(Cl)cc5)[C@@H]4c4ccc(Cl)cc4)CC3=O)nn1)C2(C)C
- IC50 (RAW264.7 [1]): > 20 µM
- Activity (RAW264.7 [3]): Active

Structure (SMILES): C=C1CC[C@H]2[C@@H](/C=C(\C)C(=O)[C@@]3(O)C[C@H](C)[C@H](O)[C@@H]3[C@H]1OCc1cn(CC(=O)N[C@H](C(=O)N3C[C@H](O)C[C@H]3C(=O)N[C@H](C)c3ccc(-c4scnc4C)cc3)C(C)(C)C)nn1)C2(C)C
- IC50 (RAW264.7 [1]): > 20 µM
- IC50 (RAW264.7 [2]): > 50 µM

Structure (SMILES): C=C1CC[C@H]2[C@@H](/C=C(\C)C(=O)[C@@]3(O)C[C@H](C)[C@H](O)[C@@H]3[C@H]1OCc1cn(CC(=O)N[C@H](Cc3ccccc3)[C@H](O)C(=O)N[C@@H](CC(C)C)C(=O)OC)nn1)C2(C)C
- IC50 (RAW264.7 [1]): > 20 µM
- IC50 (RAW264.7 [2]): > 50 µM

Structure (SMILES): C=C1CC[C@H]2[C@@H](/C=C(\C)C(=O)[C@@]3(O)C[C@H](C)[C@H](O)[C@@H]3[C@H]1OCc1cn(CCOCCOCCNC(=O)CN3CCN(C(=O)N4C(c5ccc(OC)cc5OC(C)C)=N[C@H](c5ccc(Cl)cc5)[C@@H]4c4ccc(Cl)cc4)CC3=O)nn1)C2(C)C
- IC50 (RAW264.7 [1]): > 20 µM
- Activity (RAW264.7 [3]): Active

Structure (SMILES): C=C1CC[C@H]2[C@@H](/C=C(\C)C(=O)[C@@]3(O)C[C@H](C)[C@H](O)[C@@H]3[C@H]1OCc1cn(CCOCCOCCOCCOCCNC(=O)[C@H](CC(C)C)NC(=O)[C@@H](O)[C@@H](Cc3ccccc3)NC(=O)OC(C)(C)C)nn1)C2(C)C
- IC50 (RAW264.7 [1]): > 20 µM
- IC50 (RAW264.7 [2]): > 50 µM

Structure (SMILES): C=C1CC[C@H]2[C@@H](/C=C(\C)C(=O)[C@@]3(O)C[C@H](C)[C@H](O)[C@@H]3[C@H]1OCc1cn(CCOCCOCCOCCNC(=O)CN3CCN(C(=O)N4C(c5ccc(OC)cc5OC(C)C)=N[C@H](c5ccc(Cl)cc5)[C@@H]4c4ccc(Cl)cc4)CC3=O)nn1)C2(C)C
- IC50 (RAW264.7 [1]): > 20 µM
- Activity (RAW264.7 [3]): Active
